A short description of the experiment: HIV fusion inhibitor analogs, peptide binding, SAR follow-up, biochemical, set 2, fluorescence quenching (AID 493095). The following applies: cell-free peptide binding, 30 min.

Turning to `CS(=O)(=O)C1=NSC2=NC(=O)/C(=C\c3cccn3-c3ccc(Cl)c(Cl)c3)C(=N)N21`, the IC50 was 6.55 µM. As to `O=C(O)c1ccc([C@@H]2Nc3ccc(S(=O)(=O)Nc4cccc5ccccc45)cc3[C@@H]3C=CC[C@@H]32)cc1`, the IC50 is 17.3 µM.

Take `CCOC(=O)C1=C(C)N=c2sc(=Cc3ccc(OCC(=O)O)cc3)c(=O)n2C1c1ccc(OC)cc1OC` (centres undefined): the IC50 was 20.2 µM. As for `O=C(O)CCCN1C(=O)/C(=C\c2ccc(-c3ccc(Br)cc3)o2)SC1=S`, the IC50 was 3.26 µM.

In the case of `COc1ccc(-c2ccc(/C=C3\SC(=S)N(CCCC(=O)O)C3=O)o2)cc1`, the half-maximal inhibitory concentration (IC50) is 12.9 µM. Then `COc1ccccc1NS(=O)(=O)c1ccc2c(c1)C1C=CCC1C(c1ccc(C(=O)O)cc1)N2` (centres undefined), with 69.1 µM; and `O=C(O)CCCN1C(=O)/C(=C\c2ccc(-c3cccc(Cl)c3)o2)SC1=S`, with 4.27 µM; and `CS(=O)(=O)C1=NSC2=NC(=O)/C(=C\c3cccn3-c3cccc(F)c3)C(=N)N21`, with 3.71 µM. As for `O=C(O)CCCN1C(=O)/C(=C\c2ccc(-c3ccc(F)cc3)o2)SC1=S`, the IC50 is 11.1 µM. Then `CCOC(=O)C1=C(C)N=c2sc(=Cc3ccc(OCC(=O)O)cc3)c(=O)n2C1c1cc(OC)c(OC)c(OC)c1` (centres undefined), with 7.82 µM; and `CCOC(=O)C1=C(C)N=c2s/c(=C\c3ccc(OCC(=O)O)cc3)c(=O)n2C1c1ccc(Cl)cc1` (centres undefined), with 8.89 µM; and `CS(=O)(=O)C1=NSC2=NC(=O)/C(=C\c3cccn3-c3ccc(F)cc3)C(=N)N21`, with 9.41 µM. Regarding `O=C(O)CCC(C(=O)O)N1C(=O)/C(=C\c2ccco2)SC1=S` (centres undefined), the IC50 was 1.38 µM. In the case of `CCOC(=O)C1=C(C)N=c2sc(=Cc3ccc(OCC(=O)O)cc3)c(=O)n2C1c1ccc(F)cc1` (centres undefined), the IC50 was 6.28 µM. The figure for `Cc1ccc(-n2cccc2/C=C2/C(=N)N3C(=NC2=O)SN=C3S(C)(=O)=O)cc1C` is 5.98 µM; for `Cc1ccc(-n2cccc2/C=C2/C(=N)N3C(=NC2=O)SN=C3S(C)(=O)=O)cc1` it is 6.24 µM. With `CCc1ccc(-n2cccc2/C=C2/C(=N)N3C(=NC2=O)SN=C3S(C)(=O)=O)cc1`, the IC50 is 53 µM. The figure for `CCOc1ccc(-n2cccc2/C=C2/C(=N)N3C(=NC2=O)SN=C3S(C)(=O)=O)cc1` is 40.3 µM; for `CS(=O)(=O)C1=NSC2=NC(=O)/C(=C\c3cccn3-c3ccc(Br)cc3)C(=N)N21` it is 5.36 µM.

Take `COc1cccc(C2C(C(=O)Nc3ccccc3)=C(C)N=c3sc(=Cc4ccc(OCC(=O)O)cc4)c(=O)n32)c1` (centres undefined): the IC50 was 8.05 µM. For the compound `CS(=O)(=O)C1=NSC2=NC(=O)/C(=C\c3cccn3-c3cccc(C(F)(F)F)c3)C(=N)N21`, the IC50 is 5.8 µM. Then `COc1cccc(-n2cccc2/C=C2/C(=N)N3C(=NC2=O)SN=C3S(C)(=O)=O)c1`, with 6.31 µM; and `O=C(O)CCCN1C(=O)/C(=C\c2ccc(-c3ccc(Cl)cc3)o2)SC1=S`, with 44.8 µM. Then `COc1ccc(-n2cccc2/C=C2/C(=N)N3C(=NC2=O)SN=C3S(C)(=O)=O)cc1Cl`, with 12.2 µM. For `O=C(O)CCCN1C(=O)/C(=C/c2ccc(-c3ccc(Cl)c(Cl)c3)o2)SC1=S`, the half-inhibitory concentration (IC50) was 28.9 µM.

Turning to `CCOC(=O)C1=C(c2ccccc2)N=c2s/c(=C\c3ccc(OCC(=O)O)cc3)c(=O)n2C1c1cccc(OC)c1` (centres undefined), the IC50 was 7.41 µM.

Take `CS(=O)(=O)C1=NSC2=NC(=O)/C(=C\c3cccn3-c3cccc(Cl)c3)C(=N)N21`: the IC50 is 9.16 µM. In the case of `CS(=O)(=O)C1=NSC2=NC(=O)/C(=C\c3cccn3-c3ccc(Cl)cc3)C(=N)N21`, the IC50 is 25.2 µM.

On to `CC1=C(C(=O)OC(C)C)C(c2ccc(Cl)cc2)n2c(s/c(=C\c3ccc(OCC(=O)O)cc3)c2=O)=N1` (centres undefined), for which the IC50 is 19.1 µM.

With `CCOC(=O)C1=C(C)N=c2sc(=Cc3ccc(OCC(=O)O)cc3)c(=O)n2C1c1ccccc1OC` (centres undefined), the IC50 is 31.6 µM. The figure for `O=C(O)c1ccc(C[n+]2c(-c3ccc([N+](=O)[O-])cc3)csc2Nc2ccccc2)cc1` is 15.4 µM; for `O=C(O)CCCN1C(=O)/C(=C/c2ccc(-c3cccc(C(F)(F)F)c3)o2)SC1=S` it is 5.43 µM; for `CCOC(=O)C1=C(C)N=c2sc(=Cc3ccc(OCC(=O)O)cc3)c(=O)n2C1c1ccccc1` (centres undefined) it is 19.6 µM. Then `CCOC(=O)C1=C(C)N=c2s/c(=C\c3ccc(OCC(=O)O)cc3)c(=O)n2C1c1ccc(OC)c(OCC)c1` (centres undefined), with 22.9 µM.

`COc1ccc(CCn2c(O)cc3nn(-c4nc5ccccc5s4)c(=O)c-3c2C)cc1`: the IC50 was 5.6 µM. Consider `O=C(O)CCCN1C(=O)/C(=C/c2cc3ccccc3o2)SC1=S`, for which the IC50 was 10.8 µM. Take `CS(=O)(=O)C1=NSC2=NC(=O)/C(=C\c3cccn3-c3cc(Cl)cc(Cl)c3)C(=N)N21`: the IC50 was 30 µM. The figure for `Cc1c2c(=O)n(-c3nc4ccccc4s3)nc-2cc(O)n1Cc1ccccc1Cl` is 7.69 µM.

As to `O=C(O)c1ccc(C2Nc3ccc(S(=O)(=O)Nc4cc(Cl)ccc4Cl)cc3C3C=CCC32)cc1` (centres undefined), the IC50 is 48.2 µM.

For orientation: IC50 means the concentration needed to halve the response being measured.

(Values after PubChem BioAssay AID493095 (Sanford-Burnham Center for Chemical Genomics, 2011).)
